For one assay, the target named is T1, human Kv1.5 (Homo sapiens, UniProt P22460).
T1 construct: expressed in transfected cells
Put plainly: Kv1.5 Rb+ Efflux Assay. Type of assay: cell-based. Particulars: inhibition of 86Rb+ efflux through Kv1.5; cells stably transfected with human Kv1.5; 10 point concentration response curves n=2; normalised to 2.5mM 4 amino-pyridine block. As for the experimental part:
The pore of a potassium channel is permeable to other monovalent cations such as Rb^+ and Tl^+. Analysis of cellular efflux of potassium channel permeable ions enables potassium channel activity to be monitored directly. Cells stably transfected with cDNA for human Kv1.5 (in pEF6::VA-His-TOPO) were grown in Dulbecco's Modified Eagle media (DMEM) alpha supplemented with 10% Fetal Calf Serum (FCS), 20 µl/ml penicillin (5000U/ml) streptomycin (5000µg/ml), 10µl/ml [100x] glutamine, and blasticidin (7.5µg/ml). Cells were dispensed into 96 well cellstar TC plates and allowed to grow until a confluent monolayer was visible. On the morning of the assay run, cold media was aspirated using the TECAN plate washer, and a 50µl media spike containing 2µCi/ml (37kBq/ml) ^86Rb^+ added to each well containing cells using the Shallow-Well Matrix Platemate. Plates were placed in a incubator at 37°C for a minimum of 3 hours. Unloaded ^86Rb^+ in the "hot" media was aspirated and each well washed 4x250µl with Earls Balanced Salt Solution (EBSS) which contained 5mM KCl, 140mM NaCl, 2mM CaCl2, 1mM MgSO4, 10mM HEPES, and 5mM glucose, pH 7.4, 290-300 mOsm. These cells were then pre-incubated with 50µl of EBSS +/- test compounds for 10 minutes at room temperature. After the 10 minute incubation, 50µl of modified EBSS which contained 145mM KCl, 2mM CaCl2, 1mM MgSO4, 10mM HEPES, 5mM glucose, pH 7.4, 290-300 mOsm, was added, and the cells were incubated for a further 10 minutes at room temperature. The high KCl EBSS was used to depolarise cells to a membrane potential that would activate Kv1.5 channels. After the final incubation 80µl/100µl of the reaction from each well was transferred to equivalent wells in a Packard "Optiplate" white 96 well plate and counted in a Packard TopCount liquid scintillation counter by Cerenkov emission. Percentage inhibition ^86Rb^+ efflux through Kv1.5 was calculated by normalisation to 2.5mM 4 amino-pyridine control block of Kv1.5. Alternatively cells were loaded with ^85Rb^+ and quantified by atomic absorption spectroscopy. IC50 determinations were derived from 10 point concentration response curves n=2 using the method described above. Data was fitted as variable slope sigmoidal fit using Graphpad Prism (V3.02) software.

The next assay concerns the target hKv1.5 (Homo sapiens, UniProt P22460). Put plainly: Kv1.5 Autopatch Electrophysiology (whole cell patch-clamp). The assay is classed as cell-based. The following applies: compound at 1µM, room temperature (22-24°C), held at -80mV, step to 0mV for 1000ms, total charge measured. How it is done: The external bathing solution contained (in mM): 150 NaCl, 10 KCl, […], 3 MgCl2, 1 CaCl2, 10 HEPES, pH 7.4. Patch pipettes were filled with an electrode solution of composition (in mM): 160 KCl, 0.5 MgCl2, 10 HEPES, 1 EGTA, pH 7.4 with KOH.
Compounds were dissolved in DMSO (100 %) and made up in the external bather at a concentration of 1µM. All experiments were conducted at room temperature (22-24°C).
A cell suspension (10 ml), with a density of 100,000 cells/ml, was aliquoted into a 15ml centrifuge tube and transferred to an incubator (37°C, 5% CO2) for approximately one hour before use. Following 60 min incubation, a tube was taken and centrifuged at 1000 rpm for 4 mins at room temperature. 9.5 ml supernatant was thence discarded, leaving a cell pellet at the bottom of the tube. The pellet was then resuspended using 100 µl of cold (4 °C), filtered (0.22 µm), 0.2 % BSA/bather solution (0.02g BSA/10ml bather). The bottom of the tube was manually agitated gently until the solution became cloudy with cells. The 100 µl cell resuspension solution was then stored on the bench at 4 °C (using a Peltier-based temperature control device) until used.
A length of capillary glass (1B150F-4, WPI) was dipped into the cell suspension solution, such that - 3 cm column of fluid was taken up by capillary action. A Ag/AgCl wire was dropped into the non-dipped end of the capillary also. The outside of the solution-filled end of the capillary was then dried and the capillary was loaded into the AutoPatch™. Borosilicate glass patch pipettes (from 1.5mm OD, thin-walled filamented, GC150-TF capillary glass, Harvard) were pulled using a DMZ pipette puller (Zeitz Instruments), and were back-filled using the internal pipette solution, being careful that no bubbles remain at the tip or in the body of the pipette. Patch pipettes typically had resistances of 2.3-3.5 MΩ. Once filled, the pipette tip and a proportion of the shaft (- 15 mm) were dipped into Sigmacote (Sigma). The recording pipette was then loaded into the AutoPatch™.
Automated patch-clamping was initiated by the operator, but thereafter AutoPatch.exe continued the experiment providing that pre-set conditions and criteria were satisfied.
Whole cell patch-clamp recordings were made using the AutoPatch™ rig, which incorporated an EPC9 amplifier (HEKA, Germany) under control of Pulse software (v8.54, HEKA, Germany), a motion controller with 2 translators (Newport, UK), valve controller (VF1) and a c-level suction device all at room temperature (22-24°C). This equipment was completely under the control of AutoPatch.exe and operator intervention was only made when there was a requirement to refill the drug reservoirs or to prevent the loss of a cell due to a technical error. Cells with an Rseries greater than 18 MΩ were discounted from the experiment.
Qualification stages prior to perfusion and drug application ensured that the observed current met the criteria for the experiment. Only those cells with an IK > 500 pA were used for experiments. Cells were continuously perfused with external solution at a flow rate of 1.8-2 ml/minute. […] Online analysis of the hKv1.5 current during the application of compounds was performed by the AutoPatch™ software. Voltage-step protocols and analysis of data was performed as described for conventional electrophysiology.
Electrophysiology voltage-step protocols and analysis of data was performed as follows. Data was sampled at 5kHz, and filtered with a -3 dB bandwidth of 2.5kHz. Cells were held at a voltage of -80mV. Currents were evoked to a voltage step for 1000ms in duration at 0mV every 5s. Currents were analysed using Pulsefit software (v8.54, HEKA, Germany), with the total charge measured during the whole of the voltage step. All other plots were produced using Igor Pro (WaveMetrics).

Chain of hKv1.5 (P22460 whole entry): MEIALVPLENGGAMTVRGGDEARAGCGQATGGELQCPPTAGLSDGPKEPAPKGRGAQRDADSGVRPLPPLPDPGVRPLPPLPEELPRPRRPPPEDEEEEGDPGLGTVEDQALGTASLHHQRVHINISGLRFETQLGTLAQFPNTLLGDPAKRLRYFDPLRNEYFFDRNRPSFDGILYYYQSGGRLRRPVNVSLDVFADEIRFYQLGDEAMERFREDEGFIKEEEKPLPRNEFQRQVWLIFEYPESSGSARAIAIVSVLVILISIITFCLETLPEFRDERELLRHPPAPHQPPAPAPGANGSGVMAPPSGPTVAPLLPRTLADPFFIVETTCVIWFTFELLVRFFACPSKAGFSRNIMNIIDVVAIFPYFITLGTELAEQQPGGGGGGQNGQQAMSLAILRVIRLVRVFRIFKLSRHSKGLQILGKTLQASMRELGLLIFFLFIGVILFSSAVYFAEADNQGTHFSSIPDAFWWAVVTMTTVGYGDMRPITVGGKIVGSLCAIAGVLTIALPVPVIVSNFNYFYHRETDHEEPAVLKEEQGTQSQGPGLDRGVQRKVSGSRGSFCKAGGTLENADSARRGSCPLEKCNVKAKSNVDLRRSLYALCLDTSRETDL
T1 sequence (P22460 whole entry): as above

The IC50 is the point on the concentration scale where inhibition reaches its midpoint. Higher therefore signals weaker potency in that assay. A word on the inhibition: it is the drop in the measured response relative to a control, in per cent. Higher therefore signals strong suppression. `c1ccc(-c2csc3ncnc(NCc4ccco4)c23)cc1` [Example 83, Furan-2-ylmethyl-(5-phenyl-thieno[2,3-d]pyrimidin-4-yl)-amine] registered an IC50 against human Kv1.5 of 0.07 µM. The same compound came in with an inhibition at 1 µM against hKv1.5 of 21.9%.
On to `c1ccc(-c2csc3ncnc(NCC4CC4)c23)cc1` [Example 84, Cyclopropylmethyl-(5-phenyl-thieno[2,3-d]pyrimidin-4-yl)-amine], for which, on human Kv1.5, half-maximal inhibition (IC50) required 0.8 µM. At hKv1.5, this compound had an inhibition at 1 µM of 15.3%.
As for `c1ccc(-c2csc3ncnc(NCc4cccs4)c23)cc1` [Example 85, (5-Phenyl-thieno[2,3-d]pyrimidin-4-yl)-thiophen-2-ylmethyl-amine], the IC50 on human Kv1.5 was determined as 4.21 µM. At hKv1.5, this compound returned an inhibition at 1 µM of 24.2%.
On human Kv1.5, `c1ccc(CNc2ncnc3scc(-c4ccccc4)c23)cc1` [Example 86, Benzyl-(5-phenyl-thieno[2,3-d]pyrimidin-4-yl)-amine] showed an IC50 of 4.36 µM. On hKv1.5, the inhibition at 1 µM was 46%.
For `C=CCNc1ncnc2scc(-c3ccccc3)c12` [Example 87, Allyl-(5-phenyl-thieno[2,3-d]pyrimidin-4-yl)-amine] the same measures were 5.14 µM and 3.4%.
In the same order, the values of `CN(Cc1ccco1)c1ncnc2scc(-c3ccccc3)c12` [Example 88, Furan-2-ylmethyl-methyl-(5-phenyl-thieno[2,3-d]pyrimidin-4-yl)-amine] are 6.82 µM and 26.4%.
As a reminder, the % Inhibition is the percentage by which the read-out fell short of the control. Low values mean little suppression, high ones strong suppression. Take `c1ccc(-c2csc3ncnc(NCC4CCCCC4)c23)cc1` [Example 89, Cyclohexylmethyl-(5-phenyl-thieno[2,3-d]pyrimidin-4-yl)-amine]: the IC50 at human Kv1.5 was found to be 8.1 µM. In addition, on hKv1.5, the “% Inhibition at 1µM” value is 42.2%.
For `c1ccc(CCNc2ncnc3scc(-c4ccccc4)c23)cc1` [Example 90, Phenethyl-(5-phenyl-thieno[2,3-d]pyrimidin-4-yl)-amine], the IC50 on human Kv1.5 was determined as 10.1 µM.
Consider `c1ccc(-c2csc3ncnc(NC4CCCCC4)c23)cc1` [Example 91, Cyclohexyl-(5-phenyl-thieno[2,3-d]pyrimidin-4-yl)-amine], for which the IC50 on human Kv1.5 was above 30 µM.
In turn, `c1coc(CNc2ncnc3scc(-c4cccs4)c23)c1` [Example 92, Furan-2-ylmethyl-(5-thiophen-2-yl-thieno[2,3-d]pyrimidin-4-yl)-amine] registered an IC50 against human Kv1.5 of 1.91 µM. This compound also gave an inhibition at 1 µM on hKv1.5 of 27.6%.
For `O=[N+]([O-])c1ccc(CNc2ncnc3scc(-c4cccs4)c23)cc1` [Example 93, (4-Nitro-benzyl)-(5-thiophen-2-yl-thieno[2,3-d]pyrimidin-4-yl)-amine] the same measures were above 30 µM and 44%.
Consider `COc1cc(CNc2ncnc3scc(-c4cccs4)c23)cc(OC)c1OC` [Example 94, (5-Thiophen-2-yl-thieno[2,3-d]pyrimidin-4-yl)-(3,4,5-trimethoxy-benzyl)-amine], for which, on human Kv1.5, the half-maximal inhibitory concentration (IC50) was above 30 µM. This compound yielded an inhibition at 1 µM at hKv1.5 of 19.4%.
In the same order, the values of `c1csc(-c2csc3ncnc(NCC4CC4)c23)c1` [Example 95, Cyclopropylmethyl-(5-thiophen-2-yl-thieno[2,3-d]pyrimidin-4-yl)-amine] are 4.51 µM and 32.6%.
Consider `CC(C)CNc1ncnc2scc(-c3cccs3)c12` [Example 96, Isobutyl-(5-thiophen-2-yl-thieno[2,3-d]pyrimidin-4-yl)-amine], for which inhibition at human Kv1.5 was half-maximal at 6.32 µM (IC50). Moreover, on hKv1.5, the inhibition at 1 µM was 22.9%.
For `c1ccc(CNc2ncnc3scc(-c4cccs4)c23)cc1` [Example 97, Benzyl-(5-thiophen-2-yl-thieno[2,3-d]pyrimidin-4-yl)-amine] the same measures were 6.53 µM and 43.3%.
On human Kv1.5, `c1csc(CNc2ncnc3scc(-c4cccs4)c23)c1` [Example 98, Thiophen-2-ylmethyl-(5-thiophen-2-yl-thieno[2,3-d]pyrimidin-4-yl)-amine] had an IC50 of 6.95 µM. The “% Inhibition at 1µM” value on hKv1.5 is 21.0%.
On to `CCN1CCCC1CNc1ncnc2scc(-c3ccccc3)c12` (stereo not drawn) [Example 102, (1-Ethyl-pyrrolidin-2-ylmethyl)-(5-phenyl-thieno[2,3-d]pyrimidin-4-yl)-amine], for which the IC50 on human Kv1.5 was above 30 µM.
Still for that read-out and setting: the result for `c1ccc(-c2csc3ncnc(NCCCn4ccnc4)c23)cc1` [Example 104, (3-Imidazol-1-yl-propyl)-(5-phenyl-thieno[2,3-d]pyrimidin-4-yl)-amine] reads above 30 µM.
Same read-out and setting: in the case of `COCCNc1ncnc2scc(-c3ccccc3)c12` [Example 113, (2-Methoxy-ethyl)-(5-phenyl-thieno[2,3-d]pyrimidin-4-yl)-amine] it was 5.27 µM.
Consider `c1ccc(-c2csc3ncnc(NCC4CCCO4)c23)cc1` (stereo not drawn) [Example 114, (5-Phenyl-thieno[2,3-d]pyrimidin-4-yl)-(tetrahydro-furan-2-ylmethyl)-amine], for which, at human Kv1.5, 5.18 µM corresponded to half-maximal inhibition (IC50).
The same measure, in the same setting: in the case of `c1ccc(-c2csc3ncnc(NCC4OCCO4)c23)cc1` [Example 116, [1,3]Dioxolan-2-ylmethyl-(5-phenyl-thieno[2,3-d]pyrimidin-4-yl)-amine] it was 6.16 µM.
On human Kv1.5, `Fc1ccc(-c2csc3ncnc(NCc4ccccn4)c23)cc1` [Example 123, [5-(4-Fluoro-phenyl)-thieno[2,3-d]pyrimidin-4-yl]-pyridin-2-ylmethyl-amine] came in with an IC50 of 0.05 µM.
Consider `Fc1ccc(-c2csc3ncnc(NCc4ccco4)c23)cc1` [Example 124, [5-(4-Fluoro-phenyl)-thieno[2,3-d]pyrimidin-4-yl]-furan-2-ylmethyl-amine], for which the IC50 on human Kv1.5 worked out at 1.16 µM.
On the same count and under the same terms, in the case of `Cc1csc2ncnc(NCCc3ccc(Cl)cc3)c12` [Example 125, [2-(4-Chloro-phenyl)-ethyl]-(5-methyl-thieno[2,3-d]pyrimidin-4-yl)-amine] it was 6.91 µM.
In the case of `Cc1ccc(-c2csc3ncnc(NCCc4ccccc4)c23)cc1` [Example 130, Phenethyl-(5-p-tolyl-thieno[2,3-d]pyrimidin-4-yl)-amine], it took 8.05 µM to reach half-maximal inhibition against human Kv1.5 (IC50).

These data come from patent publication EP1641803B1, “THIENOPYRIMIDINE DERIVATIVES AS POTASSIUM CHANNEL INHIBITORS” (Xention Limited, priority 2003, dated 2004).
